Reference: ChEMBL document CHEMBL6153057, “Novel Imidazotriazine Derivatives as IL-17 Modulators for Treating Inflammatory and Autoimmune Disorders” (ACS Med Chem Lett, 2025)

Experiment: Antiinflammatory activity in human HDF cells assessed as inhibition of IL-17A/TNF-alpha-stimulated IL-6 release preincubated for 5 hrs followed by IL-17A/TNF-alpha stimulation and measured after 18 to 20 hrs by homogenous time-resolved FRET based assay
Type: functional, cell-based

| IC50 | SMILES |
| --- | --- |
| 3.98 nM | [2H]C([2H])([2H])O[C@@H]1CCN(C(=O)[C@@H]2CCC(F)(F)CO2)[C@H](c2cnn3cc([C@@H](NC(=O)c4ccnn4C)C4CCC(F)(F)CC4)nc3n2)C1 |
| 39.8 nM | CO[C@@H]1CCN(C(=O)[C@@H]2CCC(F)(F)CO2)[C@@H](c2cnn3cc([C@@H](NC(=O)c4ccnn4C)C4CCC(F)(F)CC4)nc3n2)C1 |
| 39.8 nM | [2H]C([2H])([2H])O[C@@H]1CCN(C(=O)[C@@H]2CCC(F)(F)CO2)[C@@H](c2cnn3cc([C@@H](NC(=O)c4ccnn4C)C4CCC(F)(F)CC4)nc3n2)C1 |
| 3.16 nM | CO[C@@H]1CCN(C(=O)[C@@H]2CCC(F)(F)CO2)[C@H](c2cnn3cc([C@@H](NC(=O)c4ccnn4C)C4CCC(F)(F)CC4)nc3n2)C1 |
